Reference: US10538555B2, “Macrocyclic inhibitors of the PD-1/PD-L1 and CD80(B7-1)/PD-L1 protein/protein interactions” (BRISTOL-MYERS SQUIBB COMPANY, priority 2014, dated 2020)
Where two headings read alike, the source gives them in different places. Where a SMILES comes first, the peptide text is derived from it. Bridges are numbered along the chain shown (N, C = ends). [ ]: non-standard residue; d: D form. ξ: configuration not given here. Hyp = O=C(O)[C@@H]1C[C@@H](O)CN1; NMeNle = CCCC[C@H](NC)C(=O)O; NMeA = CN[C@@H](C)C(=O)O; Dab = NCC[C@H](N)C(=O)O; Dap = NC[C@H](N)C(=O)O; ξC = NC(CS)C(=O)O

Target: T1, Human PD-L1/PD-1 (Homo sapiens, UniProt Q9NZQ7)
T1 construct: TVMV protease cleavage site (C); made in house; host or cells: HEK293T cells
T1 sequence (Q9NZQ7 with tags, fused parts or gaps): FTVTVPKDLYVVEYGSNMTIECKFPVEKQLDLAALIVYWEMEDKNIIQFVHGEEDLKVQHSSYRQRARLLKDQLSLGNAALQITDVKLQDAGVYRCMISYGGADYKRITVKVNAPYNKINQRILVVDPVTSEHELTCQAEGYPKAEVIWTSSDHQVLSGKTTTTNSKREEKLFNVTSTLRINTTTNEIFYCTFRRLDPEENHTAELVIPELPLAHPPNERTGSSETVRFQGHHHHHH
Experiment: HTRF Human PD-L1/PD-1 binding assay (PD-1-Ig/PD-L1-His)
Conditions: PD-L1-His 10 nM, PD-1-Ig 20 nM
Summary of the method: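 Competition of macrocyclic peptides for PD-1/PD-L1 binding measured by HTRF in dPBS containing 0.1% BSA and 0.05% Tween-20. Compound and PD-L1-His (10 nM final) incubated 15 min before PD-1-Ig (20 nM final) and a further 15 min.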

[1] = class symbol, read-out: HTRF Human PD-L1/PD-1 Binding Assay IC50 Range

| Compound | IC50 [1] [nM] | IC50 (read-out: HTRF Human PD-L1/PD-1 Binding Assay IC50) [nM] |
| --- | --- | --- |
| CCCC[C@H]1C(=O)N(C)[C@@H](CCCC)C(=O)N[C@@H](CCC(=O)O)C(=O)NC(C(=O)NCC(N)=O)CSCC(=O)N[C@@H](Cc2ccc(O)cc2)C(=O)N(C)[C@@H](C)C(=O)N[C@@H](CC(N)=O)C(=O)N2CCC[C@H]2C(=O)N[C@@H](CC(N)=O)C(=O)N[C@@H](CC(C)C)C(=O)N2CCC[C@H]2C(=O)N[C@@H](Cc2c[nH]c3ccccc23)C(=O)N[C@@H](CO)C(=O)N[C@@H](Cc2c[nH]c3ccccc23)C(=O)N1C (stereo partly drawn) [Example 9168] ({CH2CO}-Y[NMeA]NPNLPWSW[NMeNle][NMeNle]E[ξC]G-NH2; thioether N-14) | 1 to 9.9 | – |
| CCCC[C@H]1C(=O)N(C)[C@@H](CCCC)C(=O)N[C@@H](CCC(=O)O)C(=O)NC(C(=O)NCC(N)=O)CSCC(=O)N[C@@H](Cc2ccc(O)cc2)C(=O)N(C)[C@@H](C)C(=O)N[C@@H](CC(N)=O)C(=O)N2CCC[C@H]2C(=O)N[C@@H](CC(N)=O)C(=O)N[C@@H](CC(C)C)C(=O)N2C[C@H](O)C[C@H]2C(=O)N[C@@H](Cc2c[nH]c3ccccc23)C(=O)N[C@@H](CO)C(=O)N[C@@H](Cc2c[nH]c3ccccc23)C(=O)N1C (stereo partly drawn) [Example 9169] ({CH2CO}-Y[NMeA]NPNL[Hyp]WSW[NMeNle][NMeNle]E[ξC]G-NH2; thioether N-14) | 1 to 9.9 | – |
| CCCC[C@H]1C(=O)N(C)[C@@H](CCCC)C(=O)N[C@@H](CCC(=O)O)C(=O)NC(C(=O)NCC(N)=O)CSCC(=O)N[C@@H](Cc2ccc(O)cc2)C(=O)N(C)[C@@H](C)C(=O)N[C@@H](CC(N)=O)C(=O)N2CCC[C@H]2C(=O)N[C@@H](Cc2c[nH]cn2)C(=O)N[C@@H](CC(N)=O)C(=O)N2CCC[C@H]2C(=O)N[C@@H](Cc2c[nH]c3ccccc23)C(=O)N[C@@H](CO)C(=O)N[C@@H](Cc2c[nH]c3ccccc23)C(=O)N1C (stereo partly drawn) [Example 9170] ({CH2CO}-Y[NMeA]NPHNPWSW[NMeNle][NMeNle]E[ξC]G-NH2; thioether N-14) | 10 to 99.9 | – |
| CCCC[C@H]1C(=O)N(C)[C@@H](CCCC)C(=O)N[C@@H](CCC(=O)O)C(=O)NC(C(=O)NCC(N)=O)CSCC(=O)N[C@@H](Cc2ccc(O)cc2)C(=O)N(C)[C@@H](C)C(=O)N[C@@H](CC(N)=O)C(=O)N2CCC[C@H]2C(=O)N[C@@H](Cc2c[nH]cn2)C(=O)N[C@@H](CC(N)=O)C(=O)N2C[C@H](O)C[C@H]2C(=O)N[C@@H](Cc2c[nH]c3ccccc23)C(=O)N[C@@H](CO)C(=O)N[C@@H](Cc2c[nH]c3ccccc23)C(=O)N1C (stereo partly drawn) [Example 9171] ({CH2CO}-Y[NMeA]NPHN[Hyp]WSW[NMeNle][NMeNle]E[ξC]G-NH2; thioether N-14) | 1 to 9.9 | – |
| CCCC[C@H]1C(=O)N(C)[C@@H](CCCC)C(=O)N[C@@H](CCC(=O)O)C(=O)NC(C(=O)NCC(N)=O)CSCC(=O)N[C@@H](Cc2ccc(O)cc2)C(=O)N(C)[C@@H](C)C(=O)N[C@@H](CC(N)=O)C(=O)N2CCC[C@H]2C(=O)N[C@@H](CC(N)=O)C(=O)N[C@@H](CC(C)C)C(=O)N2CCC[C@H]2C(=O)N[C@@H](Cc2c[nH]c3ccccc23)C(=O)N[C@@H](CC(=O)O)C(=O)N[C@@H](Cc2c[nH]c3ccccc23)C(=O)N1C (stereo partly drawn) [Example 9172] ({CH2CO}-Y[NMeA]NPNLPWDW[NMeNle][NMeNle]E[ξC]G-NH2; thioether N-14) | 100 to 990 | – |
| CCCC[C@H]1C(=O)N(C)[C@@H](CCCC)C(=O)N[C@@H](CCC(=O)O)C(=O)NC(C(=O)NCC(N)=O)CSCC(=O)N[C@@H](Cc2ccc(O)cc2)C(=O)N(C)[C@@H](C)C(=O)N[C@@H](CC(N)=O)C(=O)N2CCC[C@H]2C(=O)N[C@@H](CC(N)=O)C(=O)N[C@@H](CC(C)C)C(=O)N2C[C@H](O)C[C@H]2C(=O)N[C@@H](Cc2c[nH]c3ccccc23)C(=O)N[C@@H](CC(=O)O)C(=O)N[C@@H](Cc2c[nH]c3ccccc23)C(=O)N1C (stereo partly drawn) [Example 9173] ({CH2CO}-Y[NMeA]NPNL[Hyp]WDW[NMeNle][NMeNle]E[ξC]G-NH2; thioether N-14) | 100 to 990 | – |
| CCCC[C@H]1C(=O)N(C)[C@@H](CCCC)C(=O)N[C@@H](CCC(=O)O)C(=O)NC(C(=O)NCC(N)=O)CSCC(=O)N[C@@H](Cc2ccc(O)cc2)C(=O)N(C)[C@@H](C)C(=O)N[C@@H](CC(N)=O)C(=O)N2CCC[C@H]2C(=O)N[C@@H](Cc2c[nH]cn2)C(=O)N[C@@H](CC(N)=O)C(=O)N2CCC[C@H]2C(=O)N[C@@H](Cc2c[nH]c3ccccc23)C(=O)N[C@@H](CC(=O)O)C(=O)N[C@@H](Cc2c[nH]c3ccccc23)C(=O)N1C (stereo partly drawn) [Example 9174] ({CH2CO}-Y[NMeA]NPHNPWDW[NMeNle][NMeNle]E[ξC]G-NH2; thioether N-14) | 100 to 990 | – |
| CCCC[C@H]1C(=O)N(C)[C@@H](CCCC)C(=O)N[C@@H](CCC(=O)O)C(=O)NC(C(=O)NCC(N)=O)CSCC(=O)N[C@@H](Cc2ccc(O)cc2)C(=O)N(C)[C@@H](C)C(=O)N[C@@H](CC(N)=O)C(=O)N2CCC[C@H]2C(=O)N[C@@H](Cc2c[nH]cn2)C(=O)N[C@@H](CC(N)=O)C(=O)N2C[C@H](O)C[C@H]2C(=O)N[C@@H](Cc2c[nH]c3ccccc23)C(=O)N[C@@H](CC(=O)O)C(=O)N[C@@H](Cc2c[nH]c3ccccc23)C(=O)N1C (stereo partly drawn) [Example 9175] ({CH2CO}-Y[NMeA]NPHN[Hyp]WDW[NMeNle][NMeNle]E[ξC]G-NH2; thioether N-14) | – | 364 |
| CCCC[C@H]1C(=O)N(C)[C@@H](CCCC)C(=O)N[C@@H](CCC(=O)O)C(=O)NC(C(=O)NCC(N)=O)CSCC(=O)N[C@@H](Cc2ccc(O)cc2)C(=O)N(C)[C@@H](C)C(=O)N[C@@H](CC(N)=O)C(=O)N2CCC[C@H]2C(=O)N[C@@H](CC(N)=O)C(=O)N[C@@H](CC(C)C)C(=O)N2CCC[C@H]2C(=O)N[C@@H](Cc2c[nH]c3ccccc23)C(=O)N[C@@H](CN)C(=O)N[C@@H](Cc2c[nH]c3ccccc23)C(=O)N1C (stereo partly drawn) [Example 9176] ({CH2CO}-Y[NMeA]NPNLPW[Dap]W[NMeNle][NMeNle]E[ξC]G-NH2; thioether N-14) | 100 to 990 | – |
| CCCC[C@H]1C(=O)N(C)[C@@H](CCCC)C(=O)N[C@@H](CCC(=O)O)C(=O)NC(C(=O)NCC(N)=O)CSCC(=O)N[C@@H](Cc2ccc(O)cc2)C(=O)N(C)[C@@H](C)C(=O)N[C@@H](CC(N)=O)C(=O)N2CCC[C@H]2C(=O)N[C@@H](CC(N)=O)C(=O)N[C@@H](CC(C)C)C(=O)N2C[C@H](O)C[C@H]2C(=O)N[C@@H](Cc2c[nH]c3ccccc23)C(=O)N[C@@H](CN)C(=O)N[C@@H](Cc2c[nH]c3ccccc23)C(=O)N1C (stereo partly drawn) [Example 9177] ({CH2CO}-Y[NMeA]NPNL[Hyp]W[Dap]W[NMeNle][NMeNle]E[ξC]G-NH2; thioether N-14) | 100 to 990 | – |
| CCCC[C@H]1C(=O)N(C)[C@@H](CCCC)C(=O)N[C@@H](CCC(=O)O)C(=O)NC(C(=O)NCC(N)=O)CSCC(=O)N[C@@H](Cc2ccc(O)cc2)C(=O)N(C)[C@@H](C)C(=O)N[C@@H](CC(N)=O)C(=O)N2CCC[C@H]2C(=O)N[C@@H](Cc2c[nH]cn2)C(=O)N[C@@H](CC(N)=O)C(=O)N2CCC[C@H]2C(=O)N[C@@H](Cc2c[nH]c3ccccc23)C(=O)N[C@@H](CN)C(=O)N[C@@H](Cc2c[nH]c3ccccc23)C(=O)N1C (stereo partly drawn) [Example 9178] ({CH2CO}-Y[NMeA]NPHNPW[Dap]W[NMeNle][NMeNle]E[ξC]G-NH2; thioether N-14) | 100 to 990 | – |
| CCCC[C@H]1C(=O)N(C)[C@@H](CCCC)C(=O)N[C@@H](CCC(=O)O)C(=O)NC(C(=O)NCC(N)=O)CSCC(=O)N[C@@H](Cc2ccc(O)cc2)C(=O)N(C)[C@@H](C)C(=O)N[C@@H](CC(N)=O)C(=O)N2CCC[C@H]2C(=O)N[C@@H](Cc2c[nH]cn2)C(=O)N[C@@H](CC(N)=O)C(=O)N2C[C@H](O)C[C@H]2C(=O)N[C@@H](Cc2c[nH]c3ccccc23)C(=O)N[C@@H](CN)C(=O)N[C@@H](Cc2c[nH]c3ccccc23)C(=O)N1C (stereo partly drawn) [Example 9179] ({CH2CO}-Y[NMeA]NPHN[Hyp]W[Dap]W[NMeNle][NMeNle]E[ξC]G-NH2; thioether N-14) | 100 to 990 | – |
| CCCC[C@H]1C(=O)N(C)[C@@H](CCCC)C(=O)N[C@@H](CCC(=O)O)C(=O)NC(C(=O)NCC(N)=O)CSCC(=O)N[C@@H](Cc2ccc(O)cc2)C(=O)N(C)[C@@H](C)C(=O)N[C@@H](CC(N)=O)C(=O)N2CCC[C@H]2C(=O)N[C@@H](CC(N)=O)C(=O)N[C@@H](CC(C)C)C(=O)N2CCC[C@H]2C(=O)N[C@@H](Cc2c[nH]c3ccccc23)C(=O)N[C@@H](CCN)C(=O)N[C@@H](Cc2c[nH]c3ccccc23)C(=O)N1C (stereo partly drawn) [Example 9180] ({CH2CO}-Y[NMeA]NPNLPW[Dab]W[NMeNle][NMeNle]E[ξC]G-NH2; thioether N-14) | 1 to 9.9 | – |
| CCCC[C@H]1C(=O)N(C)[C@@H](CCCC)C(=O)N[C@@H](CCC(=O)O)C(=O)NC(C(=O)NCC(N)=O)CSCC(=O)N[C@@H](Cc2ccc(O)cc2)C(=O)N(C)[C@@H](C)C(=O)N[C@@H](CC(N)=O)C(=O)N2CCC[C@H]2C(=O)N[C@@H](CC(N)=O)C(=O)N[C@@H](CC(C)C)C(=O)N2C[C@H](O)C[C@H]2C(=O)N[C@@H](Cc2c[nH]c3ccccc23)C(=O)N[C@@H](CCN)C(=O)N[C@@H](Cc2c[nH]c3ccccc23)C(=O)N1C (stereo partly drawn) [Example 9181] ({CH2CO}-Y[NMeA]NPNL[Hyp]W[Dab]W[NMeNle][NMeNle]E[ξC]G-NH2; thioether N-14) | 1 to 9.9 | – |
| CCCC[C@H]1C(=O)N(C)[C@@H](CCCC)C(=O)N[C@@H](CCC(=O)O)C(=O)NC(C(=O)NCC(N)=O)CSCC(=O)N[C@@H](Cc2ccc(O)cc2)C(=O)N(C)[C@@H](C)C(=O)N[C@@H](CC(N)=O)C(=O)N2CCC[C@H]2C(=O)N[C@@H](Cc2c[nH]cn2)C(=O)N[C@@H](CC(N)=O)C(=O)N2CCC[C@H]2C(=O)N[C@@H](Cc2c[nH]c3ccccc23)C(=O)N[C@@H](CCN)C(=O)N[C@@H](Cc2c[nH]c3ccccc23)C(=O)N1C (stereo partly drawn) [Example 9182] ({CH2CO}-Y[NMeA]NPHNPW[Dab]W[NMeNle][NMeNle]E[ξC]G-NH2; thioether N-14) | 1 to 9.9 | – |
